Results from US4600689A, “Novel bilirubin oxidase, its production and use” (Takara Shuzo Co., Ltd., priority 1983, dated 1986).

The compounds below were run against T1, novel bilirubin oxidase M-1 of Trachyderma tsunodae K-2593 (Trachydermella tsunodae, UniProt O61263) (assay: Effect of interfering agents on bilirubin oxidase activity (decrease in absorption at 460 nm of bilirubin)). Settings: 10 min, pH 7, read-out: Percent interference (%).
T1 sequence (O61263 22-521): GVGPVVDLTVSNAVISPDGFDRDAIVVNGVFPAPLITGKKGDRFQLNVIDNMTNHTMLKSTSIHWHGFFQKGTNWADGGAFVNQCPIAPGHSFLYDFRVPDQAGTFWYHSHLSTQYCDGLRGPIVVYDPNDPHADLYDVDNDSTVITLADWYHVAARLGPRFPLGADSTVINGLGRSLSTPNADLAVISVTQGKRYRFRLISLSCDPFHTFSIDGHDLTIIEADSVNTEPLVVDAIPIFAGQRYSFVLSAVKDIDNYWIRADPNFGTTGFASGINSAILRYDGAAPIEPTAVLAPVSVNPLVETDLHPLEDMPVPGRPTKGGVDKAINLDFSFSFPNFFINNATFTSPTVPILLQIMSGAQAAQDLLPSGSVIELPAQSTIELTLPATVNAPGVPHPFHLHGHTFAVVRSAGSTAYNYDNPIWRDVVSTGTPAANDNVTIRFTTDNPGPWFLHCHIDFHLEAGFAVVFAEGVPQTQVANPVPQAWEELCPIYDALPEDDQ
Format: biochemical
With `O=C(O)CI` [Iodoacetic acid] the inhibition at 1000 µM was 10%.
`c1ccc(-c2ccccn2)nc1` [α,α'-Dipyridyl] was tested, and the inhibition at 1000 µM was 30%.
In the case of `O=C(O)CN(CCN(CC(=O)O)CC(=O)O)CC(=O)O` [EDTA], the inhibition at 1000 µM is reported as 59%.
`N[C@@H](CCC(=O)N[C@@H](CS)C(=O)NCC(=O)O)C(=O)O` [Reduced glutathione] gave an inhibition at 1000 µM of 38%.

Same assay, conditions: 10 min, pH 7; additive 1 mM; read-out: Percent interference (%)
For `c1cnc2c(c1)ccc1cccnc12` [o-Phenanthroline], the inhibition at 1000 µM was 34%.
`O=C1O[C@H]([C@@H](O)CO)C(O)=C1O` [L-ascorbic acid] gave an inhibition at 1000 µM of 100%.
`N[C@@H](CS)C(=O)O` [L-cysteine] showed an inhibition at 1000 µM of 74%.
`OCCS` [2-Mercaptoethanol] showed an inhibition at 1000 µM of 31%.
`O[C@H](CS)[C@H](O)CS` (racemic) [Dithiothreitol] gave an inhibition at 1000 µM of 86%.
